Test results taken from ChEMBL document CHEMBL1201862, “PubChem BioAssay data set” (2004).
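Protocol summary: plate cells (96-well), add compound at 5 concentrations, incubate 48 h, interpolate endpoints linearly. Here, GI50 denotes the concentration required for 50% inhibition of growth.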 Calls of active or inactive are those of the source. Rule as the data show it: active = GI50 up to about 1.1 µM and inactive = higher.

Key:
Test in all cases: NCI-60 cell line screen, 48 h
M14 = test system: M14
IGROV-1 = test system: IGROV-1
OVCAR-4 = test system: OVCAR-4
OVCAR-8 = test system: OVCAR-8
UACC-62 = test system: UACC-62
HCT-116 = test system: HCT-116
K562 = test system: K562
UACC-257 = test system: UACC-257
LOX IMVI = test system: LOX IMVI
M19-MEL = test system: M19-MEL
NCI-H522 = test system: NCI-H522
RXF 393 = test system: RXF 393
RPMI-8226 = test system: RPMI-8226
HOP-62 = test system: HOP-62
786-0 = test system: 786-0
U-251 = test system: U-251
SR = test system: SR
Hs-578T = test system: Hs-578T
DU-145 = test system: DU-145
HCC 2998 = test system: HCC 2998

Measured: GI50

O=C(CC1(O)C(=O)Nc2ccccc21)c1ccccc1O (stereo unspecified)
inactive: M14 > 100 µM | IGROV-1 > 100 µM | OVCAR-4 > 100 µM | OVCAR-8 > 100 µM | UACC-62 > 100 µM | HCT-116 > 100 µM | K562 > 100 µM | UACC-257 > 100 µM | LOX IMVI > 100 µM | M19-MEL > 100 µM | NCI-H522 > 100 µM | RXF 393 > 100 µM | RPMI-8226 > 100 µM | HOP-62 > 100 µM | 786-0 > 100 µM

COc1cccc(C2CC(=O)c3cc(N4CCCC4)ccc3N2)c1 (stereo unspecified)
inactive: OVCAR-4 23.3 µM | HOP-62 1.75 µM
active: U-251 0.0248 µM | M14 0.0234 µM | IGROV-1 0.045 µM | OVCAR-8 0.037 µM | UACC-62 0.0449 µM | SR 0.0144 µM | Hs-578T 0.01 µM | DU-145 0.0344 µM | HCT-116 0.0251 µM | HCC 2998 0.0475 µM | K562 0.0237 µM | UACC-257 0.01 µM | LOX IMVI 0.0516 µM | NCI-H522 0.0177 µM | RXF 393 0.0177 µM | RPMI-8226 0.0492 µM | 786-0 0.0404 µM

N#Cc1c(N2CCN(c3ccc([N+](=O)[O-])cc3)CC2)[n+]([O-])c2ccc(Cl)cc2[n+]1[O-]
active: U-251 0.738 µM | IGROV-1 0.318 µM | OVCAR-8 1.11 µM | SR 0.016 µM | HCT-116 0.427 µM | HCC 2998 0.944 µM | K562 0.231 µM | LOX IMVI 0.459 µM | NCI-H522 0.721 µM | RPMI-8226 0.705 µM | HOP-62 0.521 µM | 786-0 0.718 µM
inactive: M14 1.56 µM | OVCAR-4 1.18 µM | UACC-62 1.18 µM | Hs-578T 2.11 µM | DU-145 2.16 µM | UACC-257 2.65 µM | RXF 393 1.79 µM

O=C(N[C@H]1CCC[C@H]1C(=O)Nc1ccc(C(F)(F)F)cc1)OCc1ccccc1
inactive: U-251 > 100 µM | M14 > 100 µM | IGROV-1 > 100 µM | OVCAR-4 > 100 µM | OVCAR-8 > 100 µM | UACC-62 > 100 µM | SR > 100 µM | Hs-578T 88.5 µM | DU-145 > 100 µM | HCT-116 > 100 µM | HCC 2998 > 100 µM | K562 > 100 µM | UACC-257 > 100 µM | LOX IMVI > 100 µM | NCI-H522 54.2 µM | RXF 393 > 100 µM | RPMI-8226 > 100 µM | HOP-62 > 100 µM | 786-0 > 100 µM

Cc1nc2ccc(Br)cc2c(=O)n1-c1nnc(C(C)(C)C)s1
inactive: U-251 > 10 µM | M14 > 10 µM | IGROV-1 > 10 µM | OVCAR-4 > 10 µM | OVCAR-8 > 10 µM | UACC-62 > 10 µM | SR > 10 µM | Hs-578T 7.46 µM | DU-145 > 10 µM | HCT-116 > 10 µM | HCC 2998 > 10 µM | K562 > 10 µM | UACC-257 > 10 µM | LOX IMVI > 10 µM | NCI-H522 > 10 µM | RXF 393 > 10 µM | RPMI-8226 > 10 µM | HOP-62 > 10 µM | 786-0 > 10 µM

N#CC1=C(S)N(C2OC(CO)C(O)C(O)C2O)C(c2ccccc2)=CC1c1cccs1 (stereo unspecified)
inactive: U-251 20 µM | M14 33.3 µM | IGROV-1 22.6 µM | OVCAR-4 33.8 µM | OVCAR-8 22.3 µM | UACC-62 18.8 µM | SR 23 µM | Hs-578T 23.4 µM | DU-145 > 10 µM | HCT-116 26.3 µM | HCC 2998 21.7 µM | K562 31.1 µM | UACC-257 21.7 µM | LOX IMVI 18.7 µM | NCI-H522 18.1 µM | RXF 393 20 µM | RPMI-8226 26.3 µM | HOP-62 22.1 µM | 786-0 16.5 µM

Clc1ccc(-c2nc3cc(C45CC6CC(CC(C6)C4)C5)ccc3[nH]2)cc1
active: K562 < 0.01 µM
inactive: U-251 20.1 µM | M14 17 µM | IGROV-1 > 100 µM | OVCAR-4 60.5 µM | OVCAR-8 28.7 µM | UACC-62 31.3 µM | SR 5.64 µM | Hs-578T 62.7 µM | DU-145 54 µM | HCT-116 22.5 µM | HCC 2998 31.7 µM | UACC-257 10.7 µM | LOX IMVI 18.3 µM | NCI-H522 19.2 µM | RXF 393 72.6 µM | RPMI-8226 4.21 µM | HOP-62 37.8 µM | 786-0 39.4 µM

O=c1cc(-c2ccccc2)[nH]c2cc(F)c(F)cc12
active: U-251 0.692 µM | M14 0.392 µM | IGROV-1 0.634 µM | OVCAR-8 0.824 µM | UACC-62 0.322 µM | SR 0.189 µM | Hs-578T 0.423 µM | DU-145 0.472 µM | HCT-116 0.417 µM | K562 0.29 µM | UACC-257 0.498 µM | LOX IMVI 0.494 µM | NCI-H522 0.385 µM | RXF 393 0.23 µM | RPMI-8226 0.309 µM | 786-0 0.238 µM
inactive: OVCAR-4 > 51.4 µM | HCC 2998 5.11 µM | HOP-62 1.33 µM

C[C@]12CC/C(=N\OC(=O)Nc3ccccc3)C=C1CC[C@@H]1C2CC[C@@]2(C)C1CC[C@@H]2OC(=O)Nc1ccccc1 (stereo partly specified)
inactive: U-251 > 100 µM | M14 35.9 µM | IGROV-1 > 100 µM | OVCAR-4 > 100 µM | OVCAR-8 > 100 µM | UACC-62 59 µM | HCT-116 > 100 µM | HCC 2998 > 100 µM | K562 17.7 µM | LOX IMVI > 100 µM | M19-MEL 66.4 µM | RPMI-8226 15.4 µM | 786-0 > 100 µM

O/N=C1/C(=C/c2ccccc2)CCCC1C(NO)c1ccccc1 (stereo unspecified)
inactive: U-251 > 10 µM | M14 84.9 µM | IGROV-1 > 100 µM | OVCAR-4 31.3 µM | OVCAR-8 64 µM | UACC-62 70.3 µM | HCT-116 48.1 µM | K562 3.31 µM | UACC-257 38.5 µM | LOX IMVI > 100 µM | M19-MEL 68.4 µM | NCI-H522 45.7 µM | RXF 393 34.8 µM | RPMI-8226 35.5 µM | 786-0 > 100 µM

C(/Cc1ccc2c(c1)OCO2)=N\N=C1NCCCCN1
inactive: U-251 86.3 µM | M14 16.4 µM | IGROV-1 68.9 µM | OVCAR-4 > 100 µM | OVCAR-8 > 100 µM | UACC-62 > 100 µM | SR 69.3 µM | Hs-578T > 100 µM | DU-145 > 100 µM | HCT-116 64.7 µM | HCC 2998 28.2 µM | K562 41.9 µM | UACC-257 > 100 µM | LOX IMVI 55.5 µM | NCI-H522 > 100 µM | RXF 393 > 100 µM | RPMI-8226 48.4 µM | HOP-62 55.8 µM | 786-0 > 100 µM

COC(=O)C1CC2(C)C=CC1N(C(=O)OCc1ccccc1)C2 (stereo unspecified)
inactive: U-251 58.1 µM | M14 63.8 µM | IGROV-1 > 100 µM | OVCAR-4 40 µM | OVCAR-8 > 100 µM | UACC-62 51.5 µM | SR 37.6 µM | Hs-578T 86.5 µM | DU-145 > 100 µM | HCT-116 40.8 µM | HCC 2998 > 100 µM | K562 49.7 µM | UACC-257 65.3 µM | LOX IMVI > 100 µM | NCI-H522 30.6 µM | RXF 393 41.9 µM | RPMI-8226 48 µM | HOP-62 > 100 µM | 786-0 > 100 µM

CC1=C(C(=O)OC(C)C)C(c2ccccc2C(F)(F)F)C(C(=O)OC(CO[N+](=O)[O-])CO[N+](=O)[O-])=C(C)N1 (stereo unspecified)
inactive: U-251 8.26 µM | M14 6.98 µM | IGROV-1 9.29 µM | OVCAR-4 5.3 µM | OVCAR-8 8.13 µM | UACC-62 3.99 µM | SR 5 µM | Hs-578T 15.8 µM | DU-145 16.6 µM | HCT-116 3.76 µM | HCC 2998 21.6 µM | K562 2.69 µM | UACC-257 6.34 µM | LOX IMVI 4.61 µM | NCI-H522 3.35 µM | RXF 393 9.16 µM | RPMI-8226 3.94 µM | HOP-62 11 µM | 786-0 2.87 µM

COc1ccc([C@@]23Oc4cc(OC)cc(OC)c4[C@]2(O)[C@H](O)[C@H](C(=O)N(C)C)[C@H]3c2ccccc2)cc1 [ROCAGLAMIDE]
active: U-251 0.00605 µM | M14 0.00327 µM | IGROV-1 0.00612 µM | OVCAR-4 0.0206 µM | OVCAR-8 0.0109 µM | UACC-62 0.00676 µM | SR 0.00162 µM | Hs-578T 0.00875 µM | DU-145 0.00809 µM | HCT-116 0.00316 µM | HCC 2998 0.00289 µM | K562 0.00237 µM | UACC-257 0.0184 µM | LOX IMVI 0.00191 µM | NCI-H522 0.0104 µM | RXF 393 0.0206 µM | RPMI-8226 0.00555 µM | HOP-62 0.00973 µM | 786-0 0.00953 µM

O=C(O)CC(CC(=O)O)C(=O)O [TRICARBALLYLIC ACID]
inactive: U-251 > 100 µM | M14 > 100 µM | IGROV-1 > 100 µM | OVCAR-4 > 100 µM | OVCAR-8 > 100 µM | UACC-62 > 100 µM | SR > 100 µM | Hs-578T > 100 µM | DU-145 > 100 µM | HCT-116 > 100 µM | HCC 2998 > 100 µM | K562 > 100 µM | UACC-257 > 100 µM | LOX IMVI > 100 µM | NCI-H522 > 100 µM | RXF 393 > 100 µM | RPMI-8226 > 100 µM | HOP-62 > 100 µM | 786-0 > 100 µM
